Test results reported in patent publication US20200325177A1, “METHODS OF MAKING STREPTOGRAMIN COMPOSITIONS AND THE USE THEREOF” (THE REGENTS OF THE UNIVERSITY OF CALIFORNIA, priority 2017, published 2020).
Converted amounts (≈) assume the structure as drawn. Read-outs that look alike come from different tables or passages of the source.

Assays:
Format in all cases: cell-based
[1] = test system: E. faecium ATCC 35667; assay: MIC, Gram-positive bacteria: E. faecium ATCC 35667; conditions: Enterococcus faecium, ATCC35667, column 2, read-out: Minimal Inhibitory Concentration (MIC) E. faecium ATCC 35667
[2] = test system: S. aureus Vat A streptogramin; assay: MIC, Gram-positive bacteria: S. aureus Vat A streptogramin; conditions: Staphylococcus aureus; Gram-positive; column 5; read-out: Minimal Inhibitory Concentration (MIC) S. aureus Vat A streptogramin
[3] = test system: S. aureus; assay: MIC, Gram-positive bacteria: S. aureus (strains not named); conditions: Staphylococcus aureus, read-out: Minimal Inhibitory Concentration (MIC) S. aureus
[4] = test system: P. aeruginosa MDR clinical isolate; assay: MIC, Gram-negative bacteria: P. aeruginosa MDR clinical isolate; conditions: Pseudomonas aeruginosa, read-out: Minimal Inhibitory Concentration (MIC) P. aeruginosa MDR clinical isolate
[5] = test system: S. aureus Linezolid-resistant; cfr; assay: MIC, Gram-positive bacteria: S. aureus Linezolid-resistant; cfr; conditions: Staphylococcus aureus, column 9, read-out: Minimal Inhibitory Concentration (MIC) S. aureus Linezolid-resistant
[6] = test system: E. faecium VRE; vanA; assay: MIC, Gram-positive bacteria: E. faecium VRE; vanA; conditions: Enterococcus faecium, column 3, read-out: Minimal Inhibitory Concentration (MIC) E. faecium VRE
[7] = test system: K. pneumoniae multidrug-resistant; assay: MIC, Gram-negative bacteria: K. pneumoniae multidrug-resistant; conditions: Klebsiella pneumoniae, read-out: Minimal Inhibitory Concentration (MIC) K. pneumoniae multidrug-resistant
[8] = test system: S. pneumoniae; assay: MIC, Gram-positive bacteria: S. pneumoniae; conditions: Streptococcus pneumoniae, column 10, read-out: Minimal Inhibitory Concentration (MIC) S. pneumoniae
[9] = test system: H. influenzae ATCC 49247; assay: MIC, Gram-negative bacteria: H. influenzae ATCC 49247; conditions: Haemophilus influenzae, ATCC49247, read-out: Minimal Inhibitory Concentration (MIC) H. influenzae ATCC 49247
[10] = test system: Gram-Negative Organisms; assay: microbe, parasite or virus in culture
[11] = test system: E. faecalis; assay: MIC, Gram-positive bacteria: E. faecalis; conditions: Enterococcus faecalis, column 1, read-out: Minimal Inhibitory Concentration (MIC) E. faecalis
[12] = test system: P. aeruginosa ATCC 27853; assay: MIC, Gram-negative bacteria: P. aeruginosa ATCC 27853; conditions: Pseudomonas aeruginosa, ATCC27853, read-out: Minimal Inhibitory Concentration (MIC) P. aeruginosa ATCC 27853
[13] = first unnamed S. aureus column (c4)
[14] = fourth unnamed S. aureus column (c8)
[15] = second unnamed S. aureus column (c6)
[16] = third unnamed S. aureus column (c7)
[17] = Acinetobacter baumannii, ATCC19606, read-out: Minimal Inhibitory Concentration (MIC), A. baumannii ATCC 19606
[18] = Escherichia coli, ATCC25922, read-out: Minimal Inhibitory Concentration (MIC), E. coli ATCC 25922
[19] = Escherichia coli, read-out: Minimal Inhibitory Concentration (MIC), E. coli BAS2006, OMP C, OMP F
[20] = Escherichia coli, read-out: Minimal Inhibitory Concentration (MIC), E. coli olC efflux defective
[21] = Escherichia coli, read-out: Minimal Inhibitory Concentration (MIC), E. coli permeability mutant BAS1314, IMP4213ZAB::TN10
[22] = Escherichia coli, read-out: Minimal Inhibitory Concentration (MIC), E. coli ΔompC768, KanR insert
[23] = Klebsiella pneumoniae, ATCC43816, read-out: Minimal Inhibitory Concentration (MIC), K. pneumoniae ATCC 43816

SMILES | MIC [1] [µg/mL] | MIC [2] [µg/mL] | MIC [3, 13] [µg/mL] | MIC [3, 14] [µg/mL] | MIC [3, 15] [µg/mL] | MIC [3, 16] [µg/mL] | MIC [4] [µg/mL] | MIC [5] [µg/mL] | MIC [6] [µg/mL] | MIC [7] [µg/mL] | MIC [8] [µg/mL] | MIC [9] [µg/mL] | MIC [10, 17] [µg/mL] | MIC [10, 18] [µg/mL] | MIC [10, 19] [µg/mL] | MIC [10, 20] [µg/mL] | MIC [10, 21] [µg/mL] | MIC [10, 23] [µg/mL] | MIC [11] [µg/mL] | MIC [12] [µg/mL] | other results
CC(C)[C@H]1OC(=O)[C@H]2CCCN2C(=O)c2coc(n2)CC(=O)C[C@H](O)/C=C/C=C/CNC(=O)/C=C/[C@H]1C [SA0110239] | > 64 | > 64 | > 64 | > 64 | > 64 | > 64 | > 64 | > 64 | > 64 | > 64 | 64 (≈ 125 µM) | > 64 | > 64 | > 64 | 64 (≈ 125 µM) | 8 (≈ 15.6 µM) | 8 (≈ 15.6 µM) | > 64 | > 64 | > 64 | MIC [10, 22]: > 64 µg/mL
CC1=C\[C@@H](O)CC(=O)Cc2nc(co2)C(=O)N2CCC[C@@H]2C(=O)O[C@H]([C@H](C)COC(=O)Nc2coc(C)n2)[C@H](C)/C=C/C(=O)NC\C=C\1 [SA0110210] | 64 (≈ 95.8 µM) | > 64 | > 64 | > 64 | > 64 | > 64 | > 64 | > 64 | 64 (≈ 95.8 µM) | > 64 | 64 (≈ 95.8 µM) | 16 (≈ 24 µM) | > 64 | > 64 | > 64 | 8 (≈ 12 µM) | 8 (≈ 12 µM) | > 64 | > 64 | > 64 | MIC [10, 22]: > 64 µg/mL
CC1=C\[C@@H](O)CC(=O)Cc2nc(co2)C(=O)N[C@H](CCCCN)C(=O)O[C@H](C(C)C)[C@H](C)/C=C/C(=O)NC\C=C\1 [SA0202094] | > 64 | > 64 | > 64 | > 64 | > 64 | > 64 | > 64 | > 64 | > 64 | > 64 | > 64 | > 64 | > 64 | > 64 | > 64 | > 64 | 32 (≈ 57.3 µM) | > 64 | > 64 | > 64 | MIC [10, 22]: > 64 µg/mL
CC1=C\[C@@H](O)CC(=O)Cc2nc(co2)C(=O)N2CCC[C@@H]2C(=O)O[C@H]([C@H](C)COC(=O)Nc2cnccn2)[C@H](C)/C=C/C(=O)NC\C=C\1 [SA0110215] | 64 (≈ 96.3 µM) | > 64 | > 64 | > 64 | > 64 | > 64 | > 64 | > 64 | > 64 | > 64 | 64 (≈ 96.3 µM) | 16 (≈ 24.1 µM) | > 64 | > 64 | > 64 | 8 (≈ 12 µM) | 16 (≈ 24.1 µM) | > 64 | > 64 | > 64 | MIC [10, 22]: > 64 µg/mL
CC1=C\[C@@H](O)CC(=O)Cc2nc(co2)C(=O)N2CCC[C@@H]2C(=O)O[C@H]([C@@H](C)CO)[C@H](C)/C=C/C(=O)NC\C=C\1 [SA0110026] | 64 (≈ 118 µM) | > 64 | > 64 | > 64 | > 64 | > 64 | > 64 | > 64 | > 64 | > 64 | 64 (≈ 118 µM) | 64 (≈ 118 µM) | > 64 | > 64 | 64 (≈ 118 µM) | 32 (≈ 58.9 µM) | 64 (≈ 118 µM) | > 64 | > 64 | > 64 | 
